Assay results: patent publication US20260297129A1, “PEPTIDES AS SELECTIVE IL-23 RECEPTOR INHIBITORS” (SANOFI, priority 2023, published 2026)
In brackets after ≈: the same amount, converted by molar mass. Like-named read-outs stand apart in the source and are kept apart here. Numbered stars: 1 amine (or outer) side, 2 acyl side, 3 side chain; on linkers, the order of the positions; unused ones are H or OH. Bridge positions count the residues as written; N and C are the ends. Square brackets hold non-standard residues; d marks the D form. Peptide text beside a SMILES is read from it. * marks the point of attachment. X2 = O=C(Cc1ccc(-c2ccc(CC(=O)[*:2])cc2)cc1)[*:1]; Trp(7-Me) = Cc1cccc2c(C[C@H](N)C(=O)O)c[nH]c12; Sebacoyl = O=C(CCCCCCCCC(=O)[*:2])[*:1]; 2Nal = N[C@@H](Cc1ccc2ccccc2c1)C(=O)O; Suberoyl = O=C(CCCCCCC(=O)[*:2])[*:1]; d2Nal = N[C@H](Cc1ccc2ccccc2c1)C(=O)O; C12 diacid = O=C(O)CCCCCCCCCCC(=O)*; X1 = O=C(CCCCCCCCCCCCCN[*:1])[*:2]; 3Pal = N[C@@H](Cc1cccnc1)C(=O)O; 12Ado = NCCCCCCCCCCCC(=O)O; AEEEA = NCCOCCOCCOCC(=O)O; Aun = NCCCCCCCCCCC(=O)O; Thp = NC1(C(=O)O)CCOCC1; Me2NCH2CH2 = CN(C)CC*; Aib = CC(C)(N)C(=O)O; Sar = CNCC(=O)O

Experiments:
[1] = Protease stability in simulated intestinal fluids (FaSSIF) (Table 7); assay type: in vitro ADME; conditions: fassif with pancreatin, 37° C.; for remaining at 1 h, 1 µM: 60 min, read-out: Remaining percentage of peptide compound, FaSSIF 60 (min); for remaining at 2 h, 1 µM: 120 min, read-out: Remaining percentage of peptide compound, FaSSIF 120 (min); for remaining at 4 h, 1 µM: 240 min, read-out: Remaining percentage of peptide compound, FaSSIF 240 (min)
Method in brief: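 Percent parent remaining was derived from LC-MS/MS peak areas normalised to time 0, set at 100%. Sampling at 0, 60, 120 and 240 min, quenched in ethanol with 0.1% HCOOH. Final peptide 1 μM, 37° C, SIF containing pancreatin.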

[2] = Solubility of peptide compounds in buffer formulations (Table 5); assay type: physicochemical; conditions: target 1 mg/ml
Method in brief: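 Solubility was quantified by UHPLC-UV, comparing 1:10-diluted filtrate peak areas with a DMSO reference standard and correcting for extinction coefficients. Samples were prepared from dried DMSO stock at 1 mg/mL nominal in pH 1.2 HCl, pH 6.5 or pH 7.4 phosphate (50 mM), and agitated 2 h.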

[3] = tested on: IL-23 induced STAT3 signaling (IL-23 receptor) in HEK-Blue IL-23 cells; assay: Inhibition of IL-23 induced STAT3 signaling in HEK-Blue IL-23 cells, SEAP reporter (Table 9); assay type: cell-based; conditions: human IL23 0.25 ng/ml, overnight, read-out: Inhibition of IL-23 induced pSTAT3 (IC50 nM)
Method in brief: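 STAT3-driven SEAP output measured at OD 620–655 nm after 45 min QUANTI-Blue development of supernatant, with dose-response fits. Peptides were given 60 min ahead of 0.25 ng/ml (final) human IL-23, followed by overnight culture at 37 °C; 10,000 HEK-Blue IL-23 cells per well.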

[4] = Chemical stability (relative purity loss) of peptide compounds in buffer formulations (Table 6); assay type: physicochemical; conditions: 2° C. and 37° C.
Method in brief: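 Compounds at 0.5 mg/mL in 50 mM HCl pH 1.2, 50 mM phosphate pH 6.5 or pH 7.4, each with acetonitrile (3:1), stored 24 hours at 2° C and 37° C. Purity measured by UHPLC-UV before and after. Stability expressed as relative purity loss.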

[5] = Buffer pH 1.1 (head; method: 50 mM HCl pH 1.2), 2 h agitation, read-out: Solubility, Buffer pH 1.1
[6] = aqueous buffer, 50 mM phosphate buffer pH 6.5, 2 h agitation, read-out: Solubility, Buffer pH 6.5
[7] = aqueous buffer, 50 mM phosphate buffer pH 7.4, 2 h agitation, read-out: Solubility, Buffer pH 7.4
[8] = 50 mM phosphate buffer pH 6.5 + acetonitrile (3:1), read-out: Chemical stability (relative purity loss), Buffer pH 6.5
[9] = 50 mM phosphate buffer pH 7.4 + acetonitrile (3:1), read-out: Chemical stability (relative purity loss), Buffer pH 7.4
[10] = 50 mm hcl + acetonitrile, Buffer pH 1.1 (head; method: 50 mM HCl pH 1.2 + acetonitrile 3:1), read-out: Chemical stability (relative purity loss), Buffer pH 1.1

Row | remaining at 1 h, 1 µM [1] [%] | remaining at 2 h, 1 µM [1] [%] | remaining at 4 h, 1 µM [1] [%] | solubility at 2 h [2, 5] [µg/mL] | solubility at 2 h [2, 6] [µg/mL] | solubility at 2 h [2, 7] [µg/mL] | degraded at 24 h [4, 8] [%] | degraded at 24 h [4, 9] [%] | degraded at 24 h [4, 10] [%] | SMILES | IC50 [3] [nM]
1 | 79 | 77 | 78 | ≥ 1050 | ≥ 1100 | ≥ 1150 | 0 | 0 | 12 | Cc1cccc2c(C[C@@H]3NC(=O)CCCCCCC(=O)NCCCC[C@@H](C(=O)N[C@@H](CC(N)=O)C(=O)N[C@@H](Cc4cccnc4)C(=O)N(C)CC(N)=O)NC(=O)C(C)(C)NC(=O)[C@H](Cc4ccc5ccccc5c4)NC(=O)[C@H](Cc4ccc(OCCN(C)C)cc4)NC(=O)C4(CCOCC4)NC(=O)[C@H](CCC(N)=O)NC3=O)c[nH]c12 [compound 12] ([Trp(7-Me)]Q[Thp]Y(Me2NCH2CH2)[2Nal][Aib]KN[3Pal][Sar]-NH2; linker N-7 via Suberoyl) | 0.97
2 | 80 | 81 | 82 | 20 (≈ 12.5 µM) | < 10 | < 10 | 0 | 0.5 | 3.9 | Cc1cccc2c(C[C@@H]3NC(=O)CCCCCCCCCCNC(=O)CC[C@@H](C(=O)N[C@@H](CC(N)=O)C(=O)N[C@@H](Cc4cccnc4)C(=O)N(C)CC(N)=O)NC(=O)C(C)(C)NC(=O)[C@H](Cc4ccc5ccccc5c4)NC(=O)[C@H](Cc4ccc(OCCN(C)C)cc4)NC(=O)C4(CCOCC4)NC(=O)[C@H](CC(C)C)NC3=O)c[nH]c12 [compound 7] ([Aun][Trp(7-Me)]L[Thp]Y(Me2NCH2CH2)[2Nal][Aib]EN[3Pal][Sar]-NH2; lactam N-8) | 1.73
3 | 74 | 63 | 43 | ≥ 990 | ≥ 920 | ≥ 920 | 0 | 0.4 | 7.1 | Cc1cccc2c(C[C@@H]3NC(=O)Cc4ccc(cc4)-c4ccc(cc4)CC(=O)NCCCC[C@@H](C(=O)N[C@@H](CC(N)=O)C(=O)N[C@@H](Cc4cccnc4)C(=O)N(C)CC(N)=O)NC(=O)C(C)(C)NC(=O)[C@H](Cc4ccc5ccccc5c4)NC(=O)[C@H](Cc4ccc(OCCN(C)C)cc4)NC(=O)C4(CCOCC4)NC(=O)[C@H](CCC(N)=O)NC3=O)c[nH]c12 [compound 15] ([Trp(7-Me)]Q[Thp]Y(Me2NCH2CH2)[2Nal][Aib]KN[3Pal][Sar]-NH2; linker N-7 via X2) | 12
4 | 100 | 94 | 94 | ≥ 1140 | 220 (≈ 135 µM) | 10 (≈ 6.13 µM) | 0 | 0.1 | 6.4 | Cc1cccc2c(C[C@@H]3NC(=O)CCCCCCCCCCCNC(=O)CC[C@@H](C(=O)N[C@@H](CC(N)=O)C(=O)N[C@@H](Cc4cccnc4)C(=O)N(C)CC(N)=O)NC(=O)C(C)(C)NC(=O)[C@H](Cc4ccc5ccccc5c4)NC(=O)[C@H](Cc4ccc(OCCN(C)C)cc4)NC(=O)C4(CCOCC4)NC(=O)[C@H](CCC(N)=O)NC3=O)c[nH]c12 [compound 2] ([12Ado][Trp(7-Me)]Q[Thp]Y(Me2NCH2CH2)[2Nal][Aib]EN[3Pal][Sar]-NH2; lactam N-8) | 0.28
5 | 94 | 90 | 88 | ≥ 1200 | ≥ 1280 | ≥ 1270 | 0 | 0 | 8.6 | Cc1cccc2c(C[C@@H]3NC(=O)COCCOCCOCCNC(=O)CC[C@@H](C(=O)N[C@@H](CC(N)=O)C(=O)N[C@@H](Cc4cccnc4)C(=O)N(C)CC(N)=O)NC(=O)C(C)(C)NC(=O)[C@H](Cc4ccc5ccccc5c4)NC(=O)[C@H](Cc4ccc(OCCN(C)C)cc4)NC(=O)C4(CCOCC4)NC(=O)[C@H](CCC(N)=O)NC3=O)c[nH]c12 [compound 14] ([AEEEA][Trp(7-Me)]Q[Thp]Y(Me2NCH2CH2)[2Nal][Aib]EN[3Pal][Sar]-NH2; lactam N-8) | 1.21
6 | 96 | 90 | 90 | ≥ 920 | < 10 | < 10 | 0 | 0 | 6.2 | Cc1cccc2c(C[C@@H]3NC(=O)CCCCCCCCCCCCCNC(=O)CC[C@@H](C(=O)N[C@@H](CC(N)=O)C(=O)N[C@@H](Cc4cccnc4)C(=O)N(C)CC(N)=O)NC(=O)C(C)(C)NC(=O)[C@H](Cc4ccc5ccccc5c4)NC(=O)[C@H](Cc4ccc(OCCN(C)C)cc4)NC(=O)C4(CCOCC4)NC(=O)[C@H](CCC(N)=O)NC3=O)c[nH]c12 [compound 1] ([X1][Trp(7-Me)]Q[Thp]Y(Me2NCH2CH2)[2Nal][Aib]EN[3Pal][Sar]-NH2; lactam N-8) | 1.14
7 | 74 | 73 | 69 | ≥ 940 | 330 (≈ 204 µM) | 500 (≈ 309 µM) | 0 | 0 | 7.9 | Cc1cccc2c(C[C@@H]3NC(=O)CCCCCCCCC(=O)NCCCC[C@@H](C(=O)N[C@@H](CC(N)=O)C(=O)N[C@@H](Cc4cccnc4)C(=O)N(C)CC(N)=O)NC(=O)C(C)(C)NC(=O)[C@H](Cc4ccc5ccccc5c4)NC(=O)[C@H](Cc4ccc(OCCN(C)C)cc4)NC(=O)C4(CCOCC4)NC(=O)[C@H](CCC(N)=O)NC3=O)c[nH]c12 [compound 11] ([Trp(7-Me)]Q[Thp]Y(Me2NCH2CH2)[2Nal][Aib]KN[3Pal][Sar]-NH2; linker N-7 via Sebacoyl) | 0.28
8 | 90 | 87 | 82 | ≥ 970 | 270 (≈ 167 µM) | 60 (≈ 37.1 µM) | 0 | 0 | 6.3 | Cc1cccc2c(C[C@@H]3NC(=O)CCCCCCCCCCNC(=O)CC[C@@H](C(=O)N[C@@H](CC(N)=O)C(=O)N[C@@H](Cc4cccnc4)C(=O)N(C)CC(N)=O)NC(=O)C(C)(C)NC(=O)[C@@H](Cc4ccc5ccccc5c4)NC(=O)[C@H](Cc4ccc(OCCN(C)C)cc4)NC(=O)C4(CCOCC4)NC(=O)[C@H](CCC(N)=O)NC3=O)c[nH]c12 [compound 4] ([Aun][Trp(7-Me)]Q[Thp]Y(Me2NCH2CH2)[d2Nal][Aib]EN[3Pal][Sar]-NH2; lactam N-8) | 0.14
9 | 79 | 78 | 77 | ≥ 890 | 240 (≈ 146 µM) | 70 (≈ 42.6 µM) | 0 | 0 | 6.1 | Cc1cccc2c(C[C@@H]3NC(=O)CCCCCCCCCCC(=O)NCCCC[C@@H](C(=O)N[C@@H](CC(N)=O)C(=O)N[C@@H](Cc4cccnc4)C(=O)N(C)CC(N)=O)NC(=O)C(C)(C)NC(=O)[C@H](Cc4ccc5ccccc5c4)NC(=O)[C@H](Cc4ccc(OCCN(C)C)cc4)NC(=O)C4(CCOCC4)NC(=O)[C@H](CCC(N)=O)NC3=O)c[nH]c12 [compound 10] ([Trp(7-Me)]Q[Thp]Y(Me2NCH2CH2)[2Nal][Aib]KN[3Pal][Sar]-NH2; linker N-7 via C12 diacid) | 0.35
10 | 90 | 89 | 88 | ≥ 1190 | ≥ 1180 | ≥ 1230 | 0 | 0 | 3.1 | CC(=O)NCCCC[C@@H]1NC(=O)[C@H](Cc2c[nH]c3c(C)cccc23)NC(=O)[C@@H](NC(C)=O)CCCCN(C)CCCCN(C)CCCC[C@@H](C(=O)N[C@@H](CC(N)=O)C(=O)N[C@@H](Cc2cccnc2)C(=O)N(C)CC(N)=O)NC(=O)C(C)(C)NC(=O)[C@@H](Cc2ccc3ccccc3c2)NC(=O)[C@H](Cc2ccc(OCCN(C)C)cc2)NC(=O)C2(CCOCC2)NC1=O [compound 13] | 0.17
